The values that follow come from patent US20210395313A1, “PEPTIDE PAC1 ANTAGONISTS” (AMGEN INC., priority 2017, published 2021).

The conditions of series [1]: rat plasma, 37° C., 0 h (baseline).
Procedure: (§1) To model degradation in blood, PAC1 peptides of the present application were incubated in vitro with rat plasma. The stability analysis was conducted in a manner similar to as previously described by Souverain et al. (J. of Pharmaceutical and Biomedical Analysis, 35 (2004) 913-920).
(§2) Briefly, PAC1 peptides were spiked into rat plasma and incubated at 37° C. for up to 6 hours. Employing the reverse stability technique for various time points, plasma samples were quenched by the addition of perchloric acid in water containing internal standard (IS) and vortexed undergoing protein precipitation extraction (PPE). Following the vortex mix, samples were centrifuged and the supernatant containing PAC1 peptide and IS was subsequently analyzed using a liquid chromatography mass-spectrometry (LC-MS) system (Sciex® API 5500). The peak area ratio of intact PAC1 peptide to IS was determined for each time point. Peptide stability was reported as a percentage of the peak area ratio at each time point relative to the peak are ratio of a baseline sample (pre-incubation).
Series [2] is described as follows: in vitro. Particulars: rat, plasma.
Procedure: as §1, §2
In series [3] the target is T1, human PAC1 receptor (Homo sapiens, UniProt P41586).
T1 construct: SHSY-5Y (human neuroblastoma cell line) and RG-2 (rat glioma cell line) cells endogenously express human and rat PAC1 receptors, respectively; endogenous in cells; host or cells: SHSY-5Y human neuroblastoma cells
T1 sequence (P41586 21-468): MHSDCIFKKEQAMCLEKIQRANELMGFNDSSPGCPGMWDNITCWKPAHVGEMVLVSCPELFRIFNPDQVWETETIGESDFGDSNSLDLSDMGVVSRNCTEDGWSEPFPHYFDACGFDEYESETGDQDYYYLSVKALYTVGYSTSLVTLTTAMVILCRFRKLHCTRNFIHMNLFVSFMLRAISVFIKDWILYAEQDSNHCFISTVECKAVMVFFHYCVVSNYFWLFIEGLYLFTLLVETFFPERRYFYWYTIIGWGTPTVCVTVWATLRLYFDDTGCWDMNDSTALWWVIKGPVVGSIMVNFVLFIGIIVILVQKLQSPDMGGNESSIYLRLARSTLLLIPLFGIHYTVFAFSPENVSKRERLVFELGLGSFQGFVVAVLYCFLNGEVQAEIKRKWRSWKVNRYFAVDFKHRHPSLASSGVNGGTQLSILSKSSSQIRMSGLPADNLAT
Put plainly: LANCE Ultra cAMP accumulation antagonist assay in SHSY-5Y cells.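 Also: inhibition of cAMP accumulation evoked by PAC1 agonist at its EC80 in SHSY-5Y cells endogenously expressing receptor, 30 min preincubation then 15 min agonist, TR-FRET readout.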 The format is cell-based.
Procedure: In order to determine the potency of peptide antagonists at the PAC1 receptor, functional cAMP accumulation assays using LANCE Ultra cAMP assay kit to measure the agonist and antagonist activity of PAC1 peptides were used. SHSY-5Y (human neuroblastoma cell line) and RG-2 (rat glioma cell line) cells endogenously express human and rat PAC1 receptors, respectively. Agonist activity of PAC1 peptides was tested by incubating with SHSY-5Y at 2,000 cells per well or RG-2 at 5,000 cells per well for 15 minutes at room temperature. PAC1 receptor agonist PACAP38 or maxadilan was included as a positive control. The reaction was stopped by adding detection mixture, europium (Eu) chelate-labeled cAMP tracer and cAMP-specific monoclonal antibodies labeled with the ULight™ dye, to all wells followed by a 60-minute incubation at room temperature. The assay plates were then read on an EnVision instrument at an emission wavelength of 665 and 615 nm and data were analyzed using Genedata Screener or GraphPad Prism software. A similar procedure was used in the antagonist assays by using a fixed concentration of PAC1 agonist. The concentrations of agonists were chosen based on their ECK) values at PAC1 receptors in SHSY-5Y or RG-2 cells. SHSY-5Y or RG-2 cells were added into 96-well half-area white plates. Serially diluted PAC1 peptides at ten concentrations were added and incubated for 30 minutes at room temperature. PAC1 agonist at EC80 concentration was then added and further incubated for 15 minutes at room temperature. The reaction was stopped by adding detection mixture to all wells followed by a 60-minute incubation at room temperature. The assay plates were read and analyzed the same way as that of agonist assay. Cells, agonists, and PAC1 peptides were prepared in freshly made assay buffer (F-12, 0.5 mM IBMX, 0.1 or 0.4% BSA (pH 7.4)). Detection mixture was made by mixing a 1/50 dilution of the Eu-cAMP tracer stock solution in cAMP Detection Buffer and a 1/150 dilution of the ULight-anti-cAMP stock solution in cAMP Detection Buffer. Europium (Eu) chelate-labeled cAMP tracer, cAMP-specific monoclonal antibodies labeled with the ULight™ dye, BSA, and detection buffer were provided in LANCE Ultra cAMP Kit from PerkinElmer

For series [4], the target named is T2, rat PAC1 receptor (Rattus norvegicus, UniProt P32215).
T2 construct: SHSY-5Y (human neuroblastoma cell line) and RG-2 (rat glioma cell line) cells endogenously express human and rat PAC1 receptors, respectively; endogenous in cells; host or cells: RG-2 rat glioma cells
T2 sequence (P32215 20-523): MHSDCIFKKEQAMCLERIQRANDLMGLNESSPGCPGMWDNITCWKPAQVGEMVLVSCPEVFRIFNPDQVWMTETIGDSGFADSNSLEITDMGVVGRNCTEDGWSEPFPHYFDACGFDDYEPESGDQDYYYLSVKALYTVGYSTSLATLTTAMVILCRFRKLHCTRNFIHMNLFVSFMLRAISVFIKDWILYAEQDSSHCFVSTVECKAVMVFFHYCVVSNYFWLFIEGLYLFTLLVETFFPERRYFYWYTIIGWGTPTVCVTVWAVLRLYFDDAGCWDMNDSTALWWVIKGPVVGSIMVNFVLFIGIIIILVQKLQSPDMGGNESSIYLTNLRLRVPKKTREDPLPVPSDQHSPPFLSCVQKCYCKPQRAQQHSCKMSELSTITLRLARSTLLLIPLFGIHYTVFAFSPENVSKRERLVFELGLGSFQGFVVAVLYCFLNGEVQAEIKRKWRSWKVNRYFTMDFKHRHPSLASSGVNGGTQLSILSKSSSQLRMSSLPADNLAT
The series is described as follows: LANCE Ultra cAMP accumulation antagonist assay in RG-2 cells.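 Also: RG-2 rat glioma cells endogenously expressing PAC1, test peptide preincubated 30 min, then PAC1 agonist added at its EC80 for 15 min, cAMP accumulation read by LANCE Ultra.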 The format is cell-based.

The target of series [5] is T3, PAC1 (Rattus norvegicus, UniProt P32215).
T3 construct: Naive male Sprague Dawley® rats aged 8-12 weeks at the time of the study were purchased from Charles River Laboratories; tissue Charles River Laboratories; host or cells: live male Sprague Dawley rats; dermal blood flow on abdominal skin
T3 sequence (P32215 20-523): T2 sequence (P32215 20-523)
The series is described as follows: Rat maxadilan-induced increase in blood flow (MIIBF) PD model, laser Doppler imaging. Particulars: for inhibition of MIIBF (dermal blood flow): single bolus i.v., lowest dose of 0.1 mg/kg, 5 min prior to maxadilan, 35 min post peptide treatment; for inhibition of maxadilan-induced increase in DBF: single bolus s.c., lowest dose of 0.3 mg/kg, 15 min prior to maxadilan, 45 min post peptide treatment. The format is in vivo. The method, then: PAC1 peptide antagonists were also evaluated in an in vivo pharmacodynamic model—a model of maxadilan-induced increase in blood flow.
Naive male Sprague Dawley® rats aged 8-12 weeks at the time of the study were purchased from Charles River Laboratories. Animals were group-housed in non-sterile, ventilated micro-isolator housing in Amgen Assessment and Accreditation of Laboratory Animal Committee (AAALAC)-accredited facility. Animals had ad libitum access to pelleted feed (Harlan Teklad 2020X, Indianapolis, IN) and water (on-site generated reverse osmosis) via automatic watering system.
All PAC1 peptides were tested in a rat maxadilan-induced increase in blood flow (MIIBF) pharmacodynamic (PD) model with a laser Doppler imaging. A dosing solution of maxadilan (Bachem, H6734.0500) was prepared fresh daily by diluted maxadilan stock solution (0.5 mg/mL) in 1× PBS to the final concentration of 0.5 μg/mL. All tested peptides were prepared in 1× PBS at different concentrations depend on the dose required for the experiment and given in a single bolus i.v. or s.c. injection. A laser Doppler imager (LDI-2, Moor Instruments, Ltd, Wilmington, Del.) was used to measure dermal blood flow (DBF) on the shaved skin of the rat abdomen with a low-power laser beam generated by a 633 nm helium-neon bulb. The measurement resolution was 0.2 to 2 mm, with scanning distances between the instrument aperture and the tissue surface of 30 cm. In this report, DBF was measured and expressed as % change from baseline [100×(individual post-CAP flux-individual baseline flux)/individual baseline flux] and further calculated to % Inhibition to quantify the magnitude of drug effect [Mean of vehicle % change from BL−individual drug treated rat % change from BL)/Mean of vehicle % change from BL].
On the test day, following anesthetization with propofol, the rat's abdominal area was shaved and each animal was placed in a supine position on a temperature-controlled circulating warm-water pad to maintain a stable body temperature during the study. After a 10 to 15 minute stabilization period, a rubber O-ring (0.925 cm inner diameter, O-Rings West, Seattle, Wash.) was placed on the rat abdomen without directly positioning it over a visible blood vessel while the rat placed in a supine position on a temperature-controlled circulating warm-water pad to maintain a stable body temperature during the study. After placement of an O-ring on the selected area, a baseline (BL) DBF measurement was taken. After the BL scan, PAC1 peptides were administrated either 5 min for i.v., or 15 min for s.c. then followed by 20 μL (in 0.5 μg/mL) intradermal injection of maxadilan at the center of the O-ring. The post-maxadilan DBF was measured at 30 min and the post peptides time was 35 min for i.v. and 45 min for s.c. respectively. The O-ring serves as an area of interest in which the DBF will be analyzed within the O-ring.
All DBF results were expressed as the mean±SEM. A one-way ANOVA followed by Dunnett's Multiple Comparison Test (MCT) was used to assess the statistical significance of PAC1 peptides effects relative to the vehicle within the study. A p<0.05 was used to determine significance between any two groups.

Where a SMILES comes first, the peptide text is derived from it. Bridges are numbered along the chain shown (N, C = ends). Where no end group is shown, it is not given here.
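For % Intact Peptide Remaining in this document: peptides incubated in vitro in rat plasma at 37 °C up to 6 h, intact peptide quantified by LC-MS versus internal standard, expressed relative to pre-incubation baseline (100%).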

For “CDATCQFRKAIDDCQKQAHHSNVPGSVFKACMKQKKKEFKAGY (disulfide 1-5, 14-31) [SEQ ID NO 164]”, the “% Intact Peptide Remaining” value in series [1] came out at 100%. For the same molecule, in series [2], the amount remaining at 0.5 h was found to be 94.3%, the share remaining at 1 h was 113%, the amount remaining at 2 h is 108% and the share remaining at 4 h was 106%. Besides, in series [2], the share remaining at 6 h was determined as 96.5%.
For the molecule “CDATCQFRKAIDDCARQAHHSNVPGSVFKACMKQKKKEWKAGH (disulfide 1-5, 14-31) [SEQ ID NO 151]”, the IC50 in series [3] is 0.01 to 1 nM. The IC50 in series [4] was in the range of 0.01 to 1 nM. Further, the “% Intact Peptide Remaining” value in series [1] was found to be 100%. Also, in series [2], the share remaining at 0.5 h is 120%, the fraction remaining at 1 h amounted to 87%, the fraction remaining at 2 h was determined as 104% and the fraction remaining at 4 h was determined as 112%. For the same molecule, in series [2], the amount remaining at 6 h was determined as 107%.
Consider “CDATCQFRKAIDDCAKQAHHSNVPGSVFKACMKQKKKEFKAG-NH2 (disulfide 1-5, 14-31) [SEQ ID NO 180]”, for which the IC50 in series [3] lay in the range of 0.01 to 1 nM. Besides, the IC50 in series [4] lay within 0.01 to 1 nM. In series [5], the “inhibition of MIIBF (dermal blood flow)” value is “statistically significant inhibition” and the “inhibition of maxadilan-induced increase in DBF” value was “statistically significant inhibition”.
Regarding “CDATCQFRKAIDDCHLLAWHANVPGSVFKACMKQKKKEFKAG-NH2 (disulfide 1-5, 14-31) [SEQ ID NO 140]”, in series [1], the “% Intact Peptide Remaining” value stood at 100%. Moreover, in series [2], the share remaining at 0.5 h was found to be 101%, the share remaining at 1 h was determined as 91.4%, the amount remaining at 2 h was 93.4% and the share remaining at 4 h was 107%. Further, the amount remaining at 6 h in series [2] is 108%.
Turning to `CC[C@H](C)[C@H](NC(=O)[C@H](C)NC(=O)[C@H](CCCCN)NC(=O)[C@H](CCCNC(=N)N)NC(=O)[C@H](Cc1ccccc1)NC(=O)[C@H](CCC(N)=O)NC(=O)[C@@H]1CSSC[C@H](N)C(=O)N[C@@H](CC(=O)O)C(=O)N[C@@H](C)C(=O)N[C@@H]([C@@H](C)O)C(=O)N1)C(=O)N[C@@H](CC(=O)O)C(=O)N[C@@H](CC(=O)O)C(=O)N[C@H]1CSSC[C@@H](C(=O)N[C@@H](CCSC)C(=O)N[C@@H](CCCCN)C(=O)N[C@@H](CCC(N)=O)C(=O)N[C@@H](CCCCN)C(=O)N[C@@H](CCCCN)C(=O)N[C@@H](CCCCN)C(=O)N[C@@H](CCC(=O)O)C(=O)N[C@@H](Cc2c[nH]c3ccccc23)C(=O)N[C@@H](CCCCN)C(=O)N[C@@H](C)C(=O)NCC(N)=O)NC(=O)[C@H](C)NC(=O)[C@H](CCCCN)NC(=O)[C@H](Cc2ccccc2)NC(=O)[C@H](C(C)C)NC(=O)[C@H](CO)NC(=O)[C@H](CO)NC(=O)[C@H](Cc2c[nH]cn2)NC(=O)[C@H](Cc2ccc(O)cc2)NC(=O)[C@H](C)NC(=O)[C@H](CCC(N)=O)NC(=O)[C@H](CCCNC(=N)N)NC(=O)[C@H](C)NC1=O` [SEQ ID NO 65] (H-CDATCQFRKAIDDCARQAYHSSVFKACMKQKKKEWKAG-NH2; disulfide 1-5, 14-27), the IC50 in series [3] and in series [4] was 0.01 to 1 nM throughout. Also, in series [5], the “inhibition of maxadilan-induced increase in DBF” value is listed as “statistically significant inhibition”.
Consider “GCDATCQFRKAIDDCQKQAHHSNVPGSVFKACMKQKKKEFKAG-NH2 (disulfide 2-6, 15-32) [SEQ ID NO 181]”, for which the results for the IC50 in series [3] and in series [4] were 1 to 100 nM and 0.01 to 1 nM, respectively. In addition, the “inhibition of MIIBF (dermal blood flow)” value in series [5] is on record as “statistically significant inhibition”.
With “CDATCQFRKAIDDCVKQAHHSNVPGSVFKACMKQKKKEFKAG-NH2 (disulfide 1-5, 14-31) [SEQ ID NO 179]”, the IC50 in series [3] and in series [4] was 0.01 to 1 nM throughout. Besides, the “inhibition of MIIBF (dermal blood flow)” value in series [5] is on record as “statistically significant inhibition”.
For “CDATCQFRKAIDDCYYYAMHSNVPGSVWKACMKQKKKEFKAG-NH2 (disulfide 1-5, 14-31) [SEQ ID NO 150]”, the “% Intact Peptide Remaining” value in series [1] is listed as 100%. In addition, in series [2], the amount remaining at 0.5 h was 117%, the share remaining at 1 h is 89.7%, the share remaining at 2 h is 92.1% and the amount remaining at 4 h came to 90.2%. Besides, the fraction remaining at 6 h in series [2] was 92.8%.
Consider “SCDATCQFRKAIDDCQKQAHHSNVPGSVFKACMKQKKKEFKAG-NH2 (disulfide 2-6, 15-32) [SEQ ID NO 183]”, for which the IC50 fell in the range of 1 to 100 nM in series [3] and 0.01 to 1 nM in series [4]. Besides, the “inhibition of MIIBF (dermal blood flow)” value in series [5] was “statistically significant inhibition”.
For `CC[C@H](C)[C@H](NC(=O)[C@H](C)NC(=O)[C@H](CCCCN)NC(=O)[C@H](CCCNC(=N)N)NC(=O)[C@H](Cc1ccccc1)NC(=O)[C@H](CCC(N)=O)NC(=O)[C@@H]1CSSC[C@H](N)C(=O)N[C@@H](CC(=O)O)C(=O)N[C@@H](C)C(=O)N[C@@H]([C@@H](C)O)C(=O)N1)C(=O)N[C@@H](CC(=O)O)C(=O)N[C@@H](CC(=O)O)C(=O)N[C@H]1CSSC[C@@H](C(=O)N[C@@H](CCSC)C(=O)N[C@@H](CCCCN)C(=O)N[C@@H](CCC(N)=O)C(=O)N[C@@H](CCCCN)C(=O)N[C@@H](CCCCN)C(=O)N[C@@H](CCCCN)C(=O)N[C@@H](CCC(=O)O)C(=O)N[C@@H](Cc2ccccc2)C(=O)N[C@@H](CCCCN)C(=O)N[C@@H](C)C(N)=O)NC(=O)C(C)(C)NC(=O)[C@H](CCCCN)NC(=O)[C@H](Cc2ccccc2)NC(=O)[C@H](C(C)C)NC(=O)[C@H](CO)NC(=O)CNC(=O)[C@@H]2CCCN2C(=O)[C@H](C(C)C)NC(=O)[C@H](CC(N)=O)NC(=O)[C@H](CO)NC(=O)[C@H](Cc2c[nH]cn2)NC(=O)[C@H](Cc2c[nH]cn2)NC(=O)[C@H](C)NC(=O)[C@H](CCC(N)=O)NC(=O)[C@H](CCCCN)NC(=O)[C@H](CCC(N)=O)NC1=O` [SEQ ID NO 250], in that order: 1 to 100 nM, 0.01 to 1 nM and “statistically significant inhibition”.
